Laboratory results as given in ChEMBL document CHEMBL1201862, “PubChem BioAssay data set” (2004).
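Cultured in 96-well plates, cells were exposed to test compound for 48 hours across five concentrations. The concentration for 50% growth inhibition is given as GI50.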 Activity calls are given as the source filed them. Cut-off read from the data, not from the text of the source: active = GI50 up to about 1.1 µM and inactive = higher.

How the values were obtained:
Assay in all cases: inhibition of tumour cell growth, NCI panel, 48 h
A498 = test system: A498
A549 = test system: A549
BT-549 = test system: BT-549
HL-60 = test system: HL-60
HOP-62 = test system: HOP-62
Hs-578T = test system: Hs-578T
KM12 = test system: KM12
LOX IMVI = test system: LOX IMVI
MDA-MB-435 = test system: MDA-MB-435
Malme-3M = test system: Malme-3M
NCI-H226 = test system: NCI-H226
NCI-H522 = test system: NCI-H522
NCI/ADR-RES = test system: NCI/ADR-RES
RXF 393 = test system: RXF 393
SF-268 = test system: SF-268
SF-295 = test system: SF-295
SK-MEL-28 = test system: SK-MEL-28
SNB-19 = test system: SNB-19
SR = test system: SR

Row | Compound | GI50 (A498) | GI50 (A549) | GI50 (BT-549) | GI50 (HL-60) | GI50 (HOP-62) | GI50 (Hs-578T) | GI50 (KM12) | GI50 (LOX IMVI) | GI50 (MDA-MB-435) | GI50 (Malme-3M) | GI50 (NCI-H226) | GI50 (NCI-H522) | GI50 (NCI/ADR-RES) | GI50 (RXF 393) | GI50 (SF-268) | GI50 (SF-295) | GI50 (SK-MEL-28) | GI50 (SNB-19) | GI50 (SR)
1 | O=[N+]([O-])c1ccc(S(=O)(=O)Cc2ccccc2)c([N+](=O)[O-])c1 | 15.6 µM (inactive) | 11.4 µM (inactive) | 2.1 µM (inactive) | 1.91 µM (inactive) | 2.9 µM (inactive) | 4.12 µM (inactive) | 7.38 µM (inactive) | 1.79 µM (inactive) | 1.75 µM (inactive) | 2.91 µM (inactive) | 21.9 µM (inactive) | 0.748 µM (active) | 3.21 µM (inactive) | 1.75 µM (inactive) | 3.16 µM (inactive) | 16.6 µM (inactive) | 4.06 µM (inactive) | 17.6 µM (inactive) | 0.247 µM (active)
2 | CC(=O)NNc1nc(C)c(C(/C=C/c2ccc3c(c2)OCO3)=N/NC(=O)c2ccncc2)s1 | > 100 µM (inactive) | > 100 µM (inactive) | > 100 µM (inactive) | > 100 µM (inactive) | > 100 µM (inactive) | > 100 µM (inactive) | > 100 µM (inactive) | > 100 µM (inactive) | > 100 µM (inactive) | > 100 µM (inactive) | > 100 µM (inactive) | > 100 µM (inactive) | > 100 µM (inactive) | > 100 µM (inactive) | > 100 µM (inactive) | > 100 µM (inactive) | > 100 µM (inactive) | > 100 µM (inactive) | > 100 µM (inactive)
3 | COc1ccc(\N=C/C=C/C(=C/COC(C)=O)OC(C)=O)cc1 | 32.3 µM (inactive) | 90.6 µM (inactive) | 33.3 µM (inactive) | 19.1 µM (inactive) | 51.4 µM (inactive) | 62.8 µM (inactive) | 28.6 µM (inactive) | 25.6 µM (inactive) | 18.8 µM (inactive) | 31.2 µM (inactive) | > 100 µM (inactive) | 6.62 µM (inactive) | 39.3 µM (inactive) | 21.4 µM (inactive) | 31 µM (inactive) | 58.5 µM (inactive) | 26.9 µM (inactive) | 58.6 µM (inactive) | 39.4 µM (inactive)
4 | N#Cc1c(-c2ccc(Cl)cc2)cc(-c2ccc(Nc3ccnc4cc(C(F)(F)F)ccc34)cc2)[nH]c1=O | > 51.8 µM (inactive) | > 100 µM (inactive) | 17.4 µM (inactive) | 10.8 µM (inactive) | 23.6 µM (inactive) | 20 µM (inactive) | 67.1 µM (inactive) | 2.94 µM (inactive) | 3.33 µM (inactive) | 14.1 µM (inactive) | > 92.3 µM (inactive) | 50 µM (inactive) | > 100 µM (inactive) | 8.93 µM (inactive) | > 66.4 µM (inactive) | 36.1 µM (inactive) | 8.49 µM (inactive) | 9.73 µM (inactive) | 2.72 µM (inactive)
5 | O=C(CNc1cccc([N+](=O)[O-])c1)Nn1c(-c2ccccc2)nc2ccccc2c1=O | 0.0112 µM (active) | 1.74 µM (inactive) | 1.87 µM (inactive) | 0.422 µM (active) | 1.97 µM (inactive) | 0.581 µM (active) | 1.18 µM (inactive) | 0.221 µM (active) | 2.02 µM (inactive) | 0.973 µM (active) | 0.2 µM (active) | 0.433 µM (active) | 0.282 µM (active) | 0.37 µM (active) | 1.69 µM (inactive) | 1.58 µM (inactive) | 0.513 µM (active) | 2.11 µM (inactive) | 0.271 µM (active)
6 | Cc1cc(/N=C/c2ccc(F)cc2)n(-c2ccccc2)n1 | 42.3 µM (inactive) | 92 µM (inactive) | 85.1 µM (inactive) | 30.3 µM (inactive) | > 100 µM (inactive) | > 100 µM (inactive) | 51.8 µM (inactive) | > 100 µM (inactive) | 74.1 µM (inactive) | 75.5 µM (inactive) | > 100 µM (inactive) | 39.1 µM (inactive) | > 100 µM (inactive) | 47.9 µM (inactive) | > 100 µM (inactive) | 57.5 µM (inactive) | > 100 µM (inactive) | > 100 µM (inactive) | 35.4 µM (inactive)
